# In patent US20030113913A1, “Method of enhancing self renewal of stem cells and uses thereof” (PETER MACCALLUM CANCER INSTITUTE, priority 2001, published 2003):
# Tests used:
# [1] = system: lin− c-kit+ Sca-1+ CD45.2+ (LKS) murine hematopoietic precursors; assay: Serial transplantation of LKS hematopoietic precursors cultured with or without ATRA (congenic mouse model); assay type: in vivo; settings: for donor repopulating levels of quaternary transplant recipients: CD45.2+ donor cells in peripheral blood, mean ± SEM
# Method: 2000 FACS-enriched hematopoietic precursors (lin− c-kit+ Sca-1+) were added to wells containing media and cytokines (SCF, IL-6, IL-11 and Flt-3 ligand), and cultured without (No ATRA) or with (ATRA) 1 umol ATRA. Irradiated primary Ly5.1 recipients (6 mice per group) were transplanted with 100 000 normal Ly5.1 bone marrow cells together with 1000 noncultured (Start) Ly5.2 lin− c-kit+ Sca-1+ cells or with all cells that grew from 1000 of these precursors after 3 (3D) or 7 (7D) days in liquid suspension culture. Subsequent transplants (secondary, tertiary and quaternary) were performed using fractions of bone marrow harvested from the primary, secondary or tertiary, respectively, transplant recipients. Data are expressed as the mean +/− SEM donor cell reconstitution in the peripheral blood of transplanted recipients analyzed at 6 months (primary recipients) or 3 months (secondary, tertiary and quaternary recipients) post-transplant.
# These studies may be proven using in vivo assays, preferably using small animal models, more preferably using the congenic mouse hematopoietic stem cell transplantation model. This model relies on the use of donor and recipient mice that can be distinguished from each other by the presence of different epitopes for the leukocyte common antigen, which is present on all white blood cells.
# Irradiated CD45.1+ primary murine recipients were transplanted with 1×10^5 normal CD45.1+ bone marrow cells together with 1000 freshly isolated lin− c-kit+ Sca-1+ CD45.2+ (LKS) murine hematopoietic precursors or with all cells that grew from 1000 LKS after 3 or 7 days of culture with or without 1 μM ATRA. Primary recipients were euthanased 6 months post-transplant, their femoral marrows flushed and pooled within treatment groups and bone marrow from 1/10th of a femur of these mice were injected into each secondary irradiated recipient. Subsequent serial transplants were likewise performed at 4 month intervals post-transplant, with the 5th serial transplant currently being assessed. Recipient mice were analysed for multilineage repopulating donor cells (>5% CD45.2+) in each round of transplants.
# RARβ2 = assay: RT-PCR expression of RARβ2 in LKS+ and LKS− cells cultured with or without ATRA; assay type: cell-based, murine; settings: cells derived from LKS+ and LKS− cultured with 1 μmol ATRA for 3, 7 or 14 days
# Method: FACS-enriched hematopoietic precursors (lin− c-kit+ Sca-1+ or lin− c-kit+ Sca-1−) were added to wells containing media and cytokines (SCF, IL-6, IL-11 and Flt-3 ligand), and cultured without (No ATRA) or with (+ATRA) 1 μmol ATRA for 3, 7 or 14 days. […] LKS+=lin− c-kit+ Sca-1+ cells, LKS−=lin− c-kit+ Sca-1− cells; D=day of culture.
# (§1) Consideration was then given to the expression of the different RARs by progeny derived from lin− c-kit+ Sca-1+ cells (LKS+) or lin− c-kit+ Sca-1− cells (LKS−) after they had been cultured with or without ATRA for 3, 7 and 14 days.
# RARγ1 = assay: RT-PCR expression of RARγ1 in LKS+ and LKS− cells cultured with or without ATRA; assay type: cell-based, murine
# Method: FACS-enriched hematopoietic precursors (lin− c-kit+ Sca-1+ or lin− c-kit+ Sca-1−) were added to wells containing media and cytokines (SCF, IL-6, IL-11 and Flt-3 ligand), and cultured without (No ATRA) or with (+ATRA) 1 μmol ATRA for 3, 7 or 14 days. After culture, the cells were retrieved, mRNA prepared and expression of RAR γ 1 was analysed by RT-PCR methods. LKS+=lin− c-kit+ Sca-1+ cells, LKS−=lin− c-kit+ Sca-1− cells; D=day of culture.
# as §1
compound,measurement,setting,value
"CC1=C(/C=C/C(C)=C/C=C/C(C)=C/C(=O)O)C(C)(C)CCC1 [ATRA, all trans-retinoic acid]",donor repopulating levels of quaternary transplant recipients,[1]; LKS cultured 3 days with 1 μM ATRA,20.09±8.63%
same,donor repopulating levels of quaternary transplant recipients,[1]; LKS cultured 7 days with 1 μM ATRA,14.98±5.94%
same,multilineage donor reconstituting ability in serial transplant recipients,[1]; all serial transplant recipients of 3 day and 7 day ATRA-treated LKS (1 μM),significant multilineage donor reconstituting ability
same,evidence of leukemia in recipient mice,"[1]; recipients of ATRA-treated LKS, successive rounds of transplants",nor was there any evidence of leukemia
same,marrow cellularity of transplanted mice,"[1]; successive rounds of transplants, all treatment groups compared",no significant difference in marrow cellularity
same,RARβ2 expression,RARβ2,upregulates RARβ2 in cultured cells
same,RARγ1 expression,"RARγ1; LKS+ cells cultured with 1 μmol ATRA for 3, 7 or 14 days",maintained
same,RARγ1 expression,RARγ1; LKS− cells cultured with 1 μmol ATRA,not expressed
